The values below come from US6916797B2, “α-arylethylpiperazine derivatives as neurokinin antagonists” (UCB, S.A., priority 2000, dated 2005).

Assay [1] concerns isolated rat aorta contracted by 100 mM KCl. The experiment in a line: Effect of compound on isolated rat aorta contracted by 100 mM KCl. To be noted: 10^−5 M; contraction by 100 mM KCl. The procedure: Rat thoracic aorta depolarized by 100 mM KCl develops a contraction induced by an influx of Ca^2+ into the smooth muscle cell. An inhibition of this contraction could predict a Ca^2+ antagonist activity.
The method was adapted from Polster P. et al., J. Pharmacol. Exp. Ther. (1990), 255, 593: rings of thoracic aorta were prepared from male Wistar rats (250-400 g) and mounted under an optimal resting tension of 2 g in 10 ml organ baths containing modified Krebs' solution (NaCl 112 mM, NaHCO3 25 mM, KCl 5 mM, MgSO4 1.2 mM, CaCl2 2.5 mM, KH2PO4 1 mM and glucose 11.5 mM, pH 7.4). The bathing solution was maintained at a temperature of 37° C. and gassed with 95% O2 and 5% CO2. Isometric contractions were measured with a force transducer connected to an amplifier. A computer system was used to control data acquisition and fluid circulation through electrovalves. Drugs were manually injected into the bath.
Each ring was allowed to equilibrate for 60 min in the modified Krebs' solution. […] After obtaining two reproducible control contractions, a 3rd contraction was induced and the test compound was added to the bathing medium for 2 hours. Only preparation in which the contractions were matched were used. Each tissue received only one concentration of the test compound. Appropriate control experiments were conducted in order to test the effect of the solvant.
To normalize data, the change in tension due to the drug was compared to the change of tension due to the solvant and expressed as percentage of the induced relaxation of the initial contraction. Raw data were processed by a computer system and the pD′2 value was calculated following the method of Van Rossum J. M. et al., Arch. Int. Pharmacodyn. Ther. (1963), 143, 299.

For assay [2], the system named is verapamil binding site of the L-type calcium channel. Description: Inhibition of [3H]D888 binding to the verapamil binding site of the L-type calcium channel (rat cerebral cortex membranes). To be noted: 10 μmol/l of test substance. On the procedure:
200-250 g male Sprague-Dawley rats are sacrificed by decapitation. Cerebral cortices are quickly dissected on ice and homogenized in a 20 mmol/l Tris-HCl (pH 7.4) buffer containing 250 mmol/l sucrose (buffer A). The homogenate is centrifuged at 30,000 g for 15 min at 4° C. The resulting crude membrane pellet is resuspended in a 50 mmol/l Tris-HCl (pH 7.4) buffer and incubated 15 min at 37° C. before being centrifuged at 30,000×g for 15 min at 4° C. After two more washes under the same conditions, the final pellet is resuspended in buffer A at a protein concentration ranging from 15 to 25 mg/ml and stored in liquid nitrogen.
Binding experiments are essentially performed according to Reynolds J. et al., J. Pharmacol. Exp. Ther. (1986), 237, 731-738. (1986) with slight modifications.
Membranes (120-175 μg/assay) are incubated at 25° C. for 60 min in 0.5 ml of a 50 mmol/l Tris-HCl buffer (pH 7.4) containing 2 mmol/l MgCl2, 0.2 to 0.4×10-9 mol/l of [^3H]D888 (85 Ci/mmol; Amersham, Belgium) and 10 μmol/l of the test substance. The non specific binding (NSB) is defined as the residual binding observed in the presence 10 μM verapamil. Membrane-bound and -free radioligands are separated by rapid filtration through glass fiber filters (equivalent to Whatman GF/C or GF/B; VEL, Belgium) presoaked in 0.1% polyethyleneimine to reduce non specific binding. Samples and filters are rinsed by at least 6 ml of 50 mmol/l Tris-HCl (pH 7.4) buffer. […] The radioactivity trapped onto the filters is counted by liquid scintillation in a β-counter.
The inhibition of the radioligand specific binding is calculated as follows: [formula] • where BI and Bo represent the binding observed in the presence and absence of the test substance respectively; and • BNS is the non specific binding.
Data analysis is performed by a computerized non linear curve fitting method using a set of equations describing several binding models assuming competitive interactions between ligands (Weiland G. A. and P. B. Molinoff Life Science (1981), 29, 313-330; Molinoff P. et al. (1981) Life Sci., 29, 427-443).

A further assay addresses NK1 receptors (Homo sapiens, UniProt P25103). The experiment in a line: Binding of [4,5-3H-Leu10] substance P to human recombinant NK1 receptors expressed in CHO cell membranes. Further details: host or cells: CHO cells. To be noted: pIC50 = -log IC50, concentration inhibiting by 50% the specific binding of [4,5-3H] substance P; tested as the free base/salt given in c1. The procedure:
The following test was designed to assess the affinity of test substances for human recombinant NK1 receptors expressed in Chinese Hamster Ovarian (CHO) cells.
CHO cells expressing the human recombinant NK1 receptor are used. The cells were obtained from Euroscreen (Brussels, Belgium).
Cells expressing the human NK1 receptor are routinely cultured in 175 cm2 flasks containing 75 ml of medium F12 (Ham) enriched with 2 mmol/l L-glutamine, 100 IU/ml penicilline, 100 μg/ml streptomycine, 1% sodium pyruvate, 2.5 μg/ml fungizone amphotericin B, 400 μg/ml geneticin and supplemented with 10% foetal calf serum. […] When subcultured, the cells are seeded at a concentration of 50,000 cells/cm2.
Confluent cells are gently scraped and resuspended in 25 ml of phosphate buffered saline without calcium and magnesium. The cellular suspension is centrifuged at 1500×g for 3 min (4° C.). The cell pellet is homogenized in a 15 mmol/l Tris-HCl (pH 7.5) buffer, 2 mmol/l MgCl2, 0.3 mmol/l EDTA, 1 mmol/l EGTA. The crude membrane fraction is collected by two consecutive centrifugation steps at 40,000×g for 25 min (4° C.). The final pellet is resuspended in 20 mmol/l Tris-HCl (pH 7.4), 250 mmol/l sucrose buffer at a protein concentration ranging from 2 to 6 mg/ml and stored in liquid nitrogen. • 1.2.2. Test Design
The inhibition constant (Ki) is determined using increasing concentrations of the test substance. The concentration range usually encompasses 6 log units with variable steps (0.3 to 1 log). Assays are performed in mono- or duplicate.
Membranes are incubated at 25° C. for 60 min in 0.5 ml of a 50 mmol/l Tris-HCl buffer (pH 7.4) containing 2 mmol/l MgCl2, 100 μg/ml bacitracine, 0.1 to 0.4×10^−9 mol/l of [4,5^3H-Leu^10] substance P (specific activity>100 Ci/mmol) and increasing concentrations of the test substance. […] Membrane-bound and free radioligands are separated by rapid filtration through glass fiber filters (equivalent to Whatman GF/C or GF/B; VEL, Belgium) presoaked in 0.1% polyethyleneimine to reduce non specific binding. Samples and filters are rinsed by at least 6 ml of 50 mmol/l Tris-HCl (pH 7.4) buffer.
Initial values for the different variables may be provided by the experimenter.

Chain of NK1 receptors (P25103 whole entry): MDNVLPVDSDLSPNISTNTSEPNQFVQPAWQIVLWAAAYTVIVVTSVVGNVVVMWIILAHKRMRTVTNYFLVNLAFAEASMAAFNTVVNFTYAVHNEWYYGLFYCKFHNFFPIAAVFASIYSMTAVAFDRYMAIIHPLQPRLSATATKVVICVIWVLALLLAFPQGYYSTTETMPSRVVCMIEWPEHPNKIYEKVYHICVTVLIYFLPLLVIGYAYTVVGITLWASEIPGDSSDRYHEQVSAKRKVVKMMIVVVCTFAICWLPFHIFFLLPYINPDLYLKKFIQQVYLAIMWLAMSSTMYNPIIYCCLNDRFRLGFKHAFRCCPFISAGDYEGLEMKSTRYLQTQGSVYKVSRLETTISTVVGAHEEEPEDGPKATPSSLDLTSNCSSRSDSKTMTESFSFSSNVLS

In general, IC50 refers to the point on the concentration scale where inhibition reaches its midpoint. With `O=S(=O)(O)CCCN1CCN(C(COCc2cc(C(F)(F)F)cc(C(F)(F)F)c2)c2ccccc2)CC1` (racemic) [Compound 160], the “Result: effect of compound on isolated rat aorta contracted by 100 mM KCl” value (“Result: effect of compound” below) in assay [1] is “inactive à 10^−5 M”. Further, in assay [2], the “% inhibition of [3H]D888 binding to the verapamil binding site of the L-type calcium channel” value (“% inhibition … of the L-type calcium channel” below) is 0 (0: inhibition < 20%). Also, the half-inhibitory concentration (IC50) on NK1 receptors was 31.6 nM.

Take `O=C(O)CN1CCN(C(COCc2cc(C(F)(F)F)cc(C(F)(F)F)c2)c2ccccc2)CC1` (racemic) [Compound 229, {4-[2-(3,5-Bis-trifluoromethyl-benzyloxy)-1-phenyl-ethyl]-piperazin-1-yl}-acetic acid]: the “Result: effect of compound” value in assay [1] was “inactive à 10^−5 M”. Further, the “% inhibition … of the L-type calcium channel” value in assay [2] was 0 (0: inhibition < 20%). Besides, at NK1 receptors, the IC50 is 79.4 nM.

Take `O=C(O)CCCN1CCN(C(COCc2cc(C(F)(F)F)cc(C(F)(F)F)c2)c2ccccc2)CC1` (racemic) [Compound 232]: the “Result: effect of compound” value in assay [1] is “inactive à 10^−5 M”. Also, the “% inhibition … of the L-type calcium channel” value in assay [2] is “+ (+: inhibition comprised between 20 and 50%)”. In addition, at NK1 receptors, the IC50 is 50.1 nM.

As for `O=C(O)CCCCN1CCN(C(COCc2cc(C(F)(F)F)cc(C(F)(F)F)c2)c2ccccc2)CC1` (racemic) [Compound 233, 5-{4-[2-(3,5-Bis-trifluoromethyl-benzyloxy)-1-phenyl-ethyl]-piperazin-1-yl}-pentanoic acid], the “Result: effect of compound” value in assay [1] was “inactive à 10^−5 M”. In addition, the “% inhibition … of the L-type calcium channel” value in assay [2] is on record as 0 (0: inhibition < 20%). Further, on NK1 receptors, the IC50 was 31.6 nM.

Regarding `O=C(O)COCCN1CCN(C(COCc2cc(C(F)(F)F)cc(C(F)(F)F)c2)c2ccccc2)CC1` (racemic) [Compound 235, (2-{4-[2-(3,5-Bis-trifluoromethyl-benzyloxy)-1-phenyl-ethyl]-piperazin-1-yl}-ethoxy)-acetic acid], the “Result: effect of compound” value in assay [1] was “inactive à 10^−5 M”. In assay [2], the “% inhibition … of the L-type calcium channel” value is 0 (0: inhibition < 20%). In addition, at NK1 receptors, the IC50 was 63.1 nM.

Regarding `O=C(O)CN1CCN([C@H](COCc2cc(C(F)(F)F)cc(C(F)(F)F)c2)c2ccccc2)CC1` [Compound 230], in assay [1], the “Result: effect of compound” value was “inactive à 10^−5 M”. The “% inhibition … of the L-type calcium channel” value in assay [2] is reported as 0 (0: inhibition < 20%). Further, the IC50 on NK1 receptors is 50.1 nM.

On to `O=C(O)COCCN1CCN([C@H](COCc2cc(C(F)(F)F)cc(C(F)(F)F)c2)c2ccccc2)CC1` [Compound 236], for which the “Result: effect of compound” value in assay [1] was “inactive à 10^−5 M”. The “% inhibition … of the L-type calcium channel” value in assay [2] is reported as 0 (0: inhibition < 20%). The IC50 at NK1 receptors was 79.4 nM.

Regarding `O=C(O)COCCN1CCN([C@@H](COCc2cc(C(F)(F)F)cc(C(F)(F)F)c2)c2ccccc2)CC1` [Compound 237], in assay [1], the “Result: effect of compound” value was “inactive à 10^−5 M”. Moreover, the “% inhibition … of the L-type calcium channel” value in assay [2] is given as 0 (0: inhibition < 20%).

As to `O=C(O)c1ccc(CN2CCN([C@H](COCc3cc(C(F)(F)F)cc(C(F)(F)F)c3)c3ccccc3)CC2)cc1` [Compound 243], in assay [1], the “Result: effect of compound” value was “inactive à 10^−5 M”. Also, the “% inhibition … of the L-type calcium channel” value in assay [2] is on record as 0 (0: inhibition < 20%). In addition, the IC50 at NK1 receptors is 63.1 nM.

On to `C[C@@H](OC[C@@H](c1ccccc1)N1CCN(CCOCC(=O)O)CC1)c1cc(C(F)(F)F)cc(C(F)(F)F)c1` [Compound 281], for which the “Result: effect of compound” value in assay [1] was “inactive à 10^−5 M”. Further, the “% inhibition … of the L-type calcium channel” value in assay [2] was “+ (+: inhibition comprised between 20 and 50%)”.

As to `CC(C)COC(=O)COCCN1CCN(C(COCc2cc(C(F)(F)F)cc(C(F)(F)F)c2)c2ccccc2)CC1` (stereo not shown) [Compound 287, (2-{4-[2-(3,5-Bis-trifluoromethyl-benzyloxy)-1-phenyl-ethyl]-piperazin-1-yl}-ethoxy)-acetic acid isobutyl ester], the “Result: effect of compound” value in assay [1] is “inactive à 10^−5 M”. In addition, the “% inhibition … of the L-type calcium channel” value in assay [2] is “+ (+: inhibition comprised between 20 and 50%)”. Further, the IC50 at NK1 receptors is 31.6 nM.

For the molecule `O=c1[nH]nc(CN2CCN(C(COCc3cc(C(F)(F)F)cc(C(F)(F)F)c3)c3ccccc3)CC2)[nH]1` (stereo not shown) [Compound 295, 5-{4-[2-(3,5-Bis-trifluoromethyl-benzyloxy)-1-phenyl-ethyl]-piperazin-1-ylmethyl}-2,4-dihydro-[1,2,4]triazol-3-one], the “Result: effect of compound” value in assay [1] is “inactive à 10^−5 M”. The “% inhibition … of the L-type calcium channel” value in assay [2] was “− + (+: inhibition comprised between 20 and 50%)”. The IC50 at NK1 receptors was 63.1 nM.

With `FC(F)(F)c1cc(COCC(c2ccccc2)N2CCN(CCCCc3nnn[nH]3)CC2)cc(C(F)(F)F)c1` (stereo not shown) [Compound 297], the “Result: effect of compound” value in assay [1] is “inactive à 10^−5 M”. Moreover, in assay [2], the “% inhibition … of the L-type calcium channel” value was “+ (+: inhibition comprised between 20 and 50%)”. Besides, the IC50 at NK1 receptors was 20 nM.

With `FC(F)(F)c1cc(COC[C@H](c2ccccc2)N2CCN(CCCCc3nnn[nH]3)CC2)cc(C(F)(F)F)c1` [Compound 298, (S)-1-[2-(3,5-Bis-trifluoromethyl-benzyloxy)-1-phenyl-ethyl]-4-[4-(1H-tetrazol-5-yl)-butyl]-piperazine], in assay [1], the “Result: effect of compound” value was “inactive à 10^−5 M”. For the same molecule, the “% inhibition … of the L-type calcium channel” value in assay [2] was “+ (+: inhibition comprised between 20 and 50%)”. Further, the IC50 on NK1 receptors is 15.8 nM.
